Patent US11130752B2, “Aminopyrimidine compound” (Cardurion Pharmaceuticals, LLC, priority 2018, dated 2021)

How the values were obtained:
human CaMKIIδ = target: T1, human CaMKIIδ (Homo sapiens, UniProt Q13557); experiment: In vitro CaMKII inhibitory activity (binding assay, TR-FRET); conditions: activity ranks
T1 construct: Full-length, glutathione-S-transferase(GST)-tagged, human CaMKIIδ was purchased from Carna Biosciences; purchased Carna Biosciences (CaMKIIδ); Wako Pure Chemical Industries (calmodulin) 02-111
Summary of the method: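 TR-FRET displacement of a BODIPY probe (300 nM) from 0.5 nM full-length GST-tagged human CaMKIIδ, with Tb-anti-GST, calmodulin and 1 mM CaCl2 in pH 7.6 HEPES/MgCl2 buffer. Read after 1 hr at room temperature over an eight-point 4-fold series. IC50 by logistic fit, with 3 μM parent compound as the 100% control.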

[1] = tested on: phospholamban (Thr17, PLN) phosphorylation, cardiac CaMKII; experiment: In vivo cardiac CaMKII inhibition (oral administration), P-PLN Western blot; conditions: male CD (SD) IGS rat left ventricle, 30 mg/kg p.o., 4 hr after administration, in comparison with vehicle-treated group, read-out: Reduction rate of P-PLN
Method: Evaluation of In Vivo Cardiac CaMKII Inhibition (Oral Administration)
To evaluate potency of test compounds to inhibit cardiac CaMKII kinase in vivo, phosphorylation levels of CaMKII-specific sites of phospholamban (Thr17, PLN) were measured in the heart of rats administered orally with test compounds.
Test compounds were suspended in 0.5% [w/v]methylcellulose/water solution and administered (30 mg/kg) to male CD (SD) IGS rat (6-8 weeks old, n=4) by the p.o. route (5 mL/kg). At 4 hours after the administration, rats were sacrificed and the hearts were harvested. After washing the isolated hearts with ice-cold saline, connective tissues were removed on ice, and the isolated left ventricle were frozen into liquid nitrogen gas and stored at −80° C.
The left ventricle samples were homogenized in RIPA-buffer containing phosphatase inhibitors and protease inhibitors. Samples were analyzed by Western blotting using anti-P-PLN (Thr17, Santa Cruz Biotechnology, sc-17024-R) antibody. The band intensities were quantified using an imaging system and were normalized relative to the vehicle-treated group.

HepG2 cells = experiment: In vitro cytotoxicity (cellular ATP content, CellTiter-Glo); assay type: cell-based; conditions: 33 μM, 72 hr incubation
Method: Evaluation of In Vitro Cytotoxicity
To evaluate in vitro cytotoxicity of test compounds, % ATP reduction was determined in the presence of 33 μM of each test compound after 72 hr incubation.
HepG2 cells were seeded in DMEM (Invitrogen) containing 10% FBS (Corning)+glucose (4.5 g/L) for 24 hr to allow cell adhesion. For compound treatments, compounds were diluted in DMSO and the media, followed by added to the wells (24 hr after the cell seeding) to obtain the desired final concentration (33 μM, n=2). The final DMSO concentration was 1%. After 72 hr, cellular ATP contents were measured using CellTiter-Glo Luminescent Cell Viability Assay (Promega). The % ATP reduction was determined by comparing the ATP contents in the absence and the presence of test compounds.

[2] = Table 1, GST-tagged human CaMKIIδ
[3] = Table 4, GST-tagged human CaMKIIδ

Compound	IC50 (human CaMKIIδ; [2]) [nM]	inhibition in vivo at 30 mg/kg [1] [%]	% ATP reduction (HepG2 cells) [%]	melting point [°C]	IC50 (human CaMKIIδ; [3]) [nM]
CCOCCOc1nn([C@H]2CC[C@H](N3[C@@H]4CC[C@H]3COC4)CC2)cc1Nc1ncc(-c2ccc(C#N)c(O[C@@H](C)Cn3cnnn3)c2)cn1 [Example 12, 2-(((S)-1-(1H-tetrazol-1-yl)propan-2-yl)oxy)-4-(2-((1-((1r,4r)-4-((1R,5S)-3-oxa-8-azabicyclo[3.2.1]octan-8-yl)cyclohexyl)-3-(2-ethoxyethoxy)-1H-pyrazol-4-yl)amino)pyrimidin-5-yl)benzonitrile]	< 10	> 30	–	–	–
COCCCOc1nn([C@H]2CC[C@H](N3CCOCC3)CC2)cc1Nc1ncc(-c2ccc(C#N)c(O[C@@H](C)Cn3cnnn3)c2)cn1 [Example 26, 2-(((S)-1-(1H-tetrazol-1-yl)propan-2-yl)oxy)-4-(2-((3-(3-methoxypropoxy)-1-((1r,4r)-4-morpholinocyclohexyl)-1H-pyrazol-4-yl)amino)pyrimidin-5-yl)benzonitrile]	< 10	> 30	9	153	–
COCCCOc1nn([C@H]2CC[C@H](N3[C@@H]4CC[C@H]3COC4)CC2)cc1Nc1ncc(-c2ccc(C#N)c(O[C@@H](C)Cn3cnnn3)c2)cn1 [Example 30, 2-(((S)-1-(1H-tetrazol-1-yl)propan-2-yl)oxy)-4-(2-((1-((1r,4r)-4-((1R,5S)-3-oxa-8-azabicyclo[3.2.1]octan-8-yl)cyclohexyl)-3-(3-methoxypropoxy)-1H-pyrazol-4-yl)amino)pyrimidin-5-yl)benzonitrile]	< 10	> 30	–	–	–
CCOCCCOc1nn([C@H]2CC[C@H](N3CCOCC3)CC2)cc1Nc1ncc(-c2ccc(C#N)c(O[C@@H](C)Cn3cnnn3)c2)cn1 [Example 33, 2-(((S)-1-(1H-tetrazol-1-yl)propan-2-yl)oxy)-4-(2-((3-(3-ethoxypropoxy)-1-((1r,4r)-4-morpholinocyclohexyl)-1H-pyrazol-4-yl)amino)pyrimidin-5-yl)benzonitrile]	< 10	> 30	–	–	–
CCOCCCOc1nn([C@H]2CC[C@H](N3[C@@H]4CC[C@H]3COC4)CC2)cc1Nc1ncc(-c2ccc(C#N)c(O[C@@H](C)Cn3cnnn3)c2)cn1 [Example 36, 2-(((S)-1-(1H-tetrazol-1-yl)propan-2-yl)oxy)-4-(2-((1-((1r,4r)-4-((1R,5S)-3-oxa-8-azabicyclo[3.2.1]octan-8-yl)cyclohexyl)-3-(3-ethoxypropoxy)-1H-pyrazol-4-yl)amino)pyrimidin-5-yl)benzonitrile]	< 10	> 30	–	–	–
COCCOCCOc1nn([C@H]2CC[C@H](N3C[C@@H](C)O[C@@H](C)C3)CC2)cc1Nc1ncc(-c2ccc(C#N)c(O[C@@H](C)Cn3cnnn3)c2)cn1.Cl [Example 241, 2-(((S)-1-(1H-tetrazol-1-yl)propan-2-yl)oxy)-4-(2-((1-((1r,4r)-4-((2S,6R)-2,6-dimethylmorpholino)cyclohexyl)-3-(2-(2-methoxyethoxy)ethoxy)-1H-pyrazol-4-yl)amino)pyrimidin-5-yl)benzonitrile hydrochloride]	< 10	–	−2	–	–
C[C@@H]1CN([C@H]2CC[C@H](n3cc(Nc4ncc(-c5ccc(C#N)c(O[C@@H](C)Cn6cnnn6)c5)cn4)c(OCCC4COC4)n3)CC2)C[C@H](C)O1 [Example 477, 2-(((S)-1-(1H-tetrazol-1-yl)propan-2-yl)oxy)-4-(2-((1-((1r,4r)-4-((2S,6R)-2,6-dimethylmorpholino)cyclohexyl)-3-(2-(oxetan-3-yl)ethoxy)-1H-pyrazol-4-yl)amino)pyrimidin-5-yl)benzonitrile]	–	–	9	–	< 10
C[C@@H]1CN([C@H]2CC[C@H](n3cc(Nc4ncc(-c5ccc(Cl)c(O[C@@H](C)Cn6cnnn6)c5)cn4)c(OCCC(C)(C)O)n3)CC2)C[C@H](C)O1 [Example 486, 4-((4-((5-(3-(((S)-1-(1H-tetrazol-1-yl)propan-2-yl)oxy)-4-chlorophenyl)pyrimidin-2-yl)amino)-1-((1r,4r)-4-((2S,6R)-2,6-dimethylmorpholino)cyclohexyl)-1H-pyrazol-3-yl)oxy)-2-methylbutan-2-ol]	–	> 30	–	–	< 10
COCCOCCCOc1nn([C@H]2CC[C@H](N3C[C@@H](C)O[C@@H](C)C3)CC2)cc1Nc1ncc(-c2ccc(Cl)c(O[C@@H](C)Cn3cnnn3)c2)cn1 [Example 487, 5-(3-(((S)-1-(1H-tetrazol-1-yl)propan-2-yl)oxy)-4-chlorophenyl)-N-(1-((1r,4r)-4-((2S,6R)-2,6-dimethylmorpholino)cyclohexyl)-3-(3-(2-methoxyethoxy)propoxy)-1H-pyrazol-4-yl)pyrimidin-2-amine]	–	> 30	–	–	< 10
COCCOCCCOc1nn([C@H]2CC[C@H](N3C[C@@H](C)O[C@@H](C)C3)CC2)cc1Nc1ncc(-c2ccc(C#N)c(O[C@@H](C)Cn3cnnn3)c2)cn1 [Example 488, 2-(((S)-1-(1H-tetrazol-1-yl)propan-2-yl)oxy)-4-(2-((1-((1r,4r)-4-((2S,6R)-2,6-dimethylmorpholino)cyclohexyl)-3-(3-(2-methoxyethoxy)propoxy)-1H-pyrazol-4-yl)amino)pyrimidin-5-yl)benzonitrile]	–	> 30	3	–	< 10
COCCCOc1nn([C@H]2CC[C@H](N3C[C@@H](C)O[C@@H](C)C3)CC2)cc1Nc1ncc(-c2ccc(Cl)c(O[C@@H](C)Cn3cnnn3)c2)cn1 [Example 489, 5-(3-(((S)-1-(1H-tetrazol-1-yl)propan-2-yl)oxy)-4-chlorophenyl)-N-(1-((1r,4r)-4-((2S,6R)-2,6-dimethylmorpholino)cyclohexyl)-3-(3-methoxypropoxy)-1H-pyrazol-4-yl)pyrimidin-2-amine]	–	> 30	–	–	< 10
C[C@@H](Cn1cnnn1)Oc1cc(-c2cnc(Nc3cn([C@H]4CC[C@H](N5CCOCC5)CC4)nc3OCc3ncccn3)nc2)ccc1Cl [Example 509, 5-(3-(((S)-1-(1H-tetrazol-1-yl)propan-2-yl)oxy)-4-chlorophenyl)-N-(1-((1r,4r)-4-morpholinocyclohexyl)-3-(pyrimidin-2-ylmethoxy)-1H-pyrazol-4-yl)pyrimidin-2-amine]	–	–	–	–	10 to 100
C[C@@H](Cn1cnnn1)Oc1cc(-c2cnc(Nc3cn([C@H]4CC[C@H](N5CCOCC5)CC4)nc3OCCc3cccnc3)nc2)ccc1Cl [Example 510, 5-(3-(((S)-1-(1H-tetrazol-1-yl)propan-2-yl)oxy)-4-chlorophenyl)-N-(1-((1r,4r)-4-morpholinocyclohexyl)-3-(2-(pyridin-3-yl)ethoxy)-1H-pyrazol-4-yl)pyrimidin-2-amine]	–	–	–	–	< 10
COCCOCCOCCOc1nn([C@H]2CC[C@H](N3CCOCC3)CC2)cc1Nc1ncc(-c2ccc(Cl)c(O[C@@H](C)Cn3cnnn3)c2)cn1 [Example 511, 5-(3-(((S)-1-(1H-tetrazol-1-yl)propan-2-yl)oxy)-4-chlorophenyl)-N-(3-(2-(2-(2-methoxyethoxy)ethoxy)ethoxy)-1-((1r,4r)-4-morpholinocyclohexyl)-1H-pyrazol-4-yl)pyrimidin-2-amine]	–	–	–	–	10 to 100
[2H]C([2H])([2H])OCCCOc1nn([C@H]2CC[C@H](N3CCOCC3)CC2)cc1Nc1ncc(-c2ccc(Cl)c(O[C@@H](C)Cn3cnnn3)c2)cn1 [Example 512, 5-(3-(((S)-1-(1H-tetrazol-1-yl)propan-2-yl)oxy)-4-chlorophenyl)-N-(3-(3-(methoxy-d3)propoxy)-1-((1r,4r)-4-morpholinocyclohexyl)-1H-pyrazol-4-yl)pyrimidin-2-amine]	–	–	–	–	< 10
C[C@@H](Cn1cnnn1)Oc1cc(-c2cnc(Nc3cn([C@H]4CC[C@H](N5CCOCC5)CC4)nc3OCCn3cccn3)nc2)ccc1Cl [Example 513, N-(3-(2-(1H-pyrazol-1-yl)ethoxy)-1-((1r,4r)-4-morpholinocyclohexyl)-1H-pyrazol-4-yl)-5-(3-(((S)-1-(1H-tetrazol-1-yl)propan-2-yl)oxy)-4-chlorophenyl)pyrimidin-2-amine]	–	–	–	–	< 10
